One series deals with T1, hDHODH (Homo sapiens, UniProt Q02127).
T1 construct: The plasmid pET-19b–hDHODH (Met30-Arg396) was transformed; inferred from the pET-19b vector and from purification on a chelating column with imidazole elution) (N); made in house; host or cells: E. coli BL21 (DE3)
Put plainly: hDHODH enzyme inhibition assay (DCIP/UQ0, dihydroorotate-initiated).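 For all read-outs here: recombinant hDHODH (Met30–Arg396) in HEPES pH 8.0 buffer with KCl and Triton X-100, reaction started by 500 µM dihydroorotate, inhibition from rate with inhibitor relative to uninhibited rate.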 The series is classed as biochemical. To be noted: for inhibition at 10 µM: compound at 10 µM, 10 nM purified hDHODH; for IC50: three independent tests, determined if inhibition at 10 μM was greater than 50%.

Structures are written as SMILES.

T1 sequence (Q02127 29-395 limits assumed): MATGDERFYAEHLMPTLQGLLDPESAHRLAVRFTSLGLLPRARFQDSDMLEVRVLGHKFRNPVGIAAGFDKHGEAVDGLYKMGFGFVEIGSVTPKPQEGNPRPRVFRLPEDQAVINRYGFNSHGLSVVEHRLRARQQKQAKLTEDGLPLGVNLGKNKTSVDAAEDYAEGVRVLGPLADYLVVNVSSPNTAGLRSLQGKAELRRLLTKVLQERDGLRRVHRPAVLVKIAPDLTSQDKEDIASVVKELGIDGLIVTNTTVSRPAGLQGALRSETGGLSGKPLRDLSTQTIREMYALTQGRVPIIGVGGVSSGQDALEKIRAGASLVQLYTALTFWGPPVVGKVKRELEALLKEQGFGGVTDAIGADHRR
Description for hDHODH: The purified hDHODH was diluted into a final concentration of 10 nM with the assay buffer contained 50 mM HEPES pH 8.0, 150 mM KCl, 0.1% Triton X-100. […] The dihydroorotate was added to a final concentration of 500 μM to initiate the reaction. […] Inhibition rate was calculated from (1-Vi/V0) × 100. For the determination of the IC50 values, eight to nine different concentrations were applied. Each inhibitor concentration point was tested in triplicate. IC50 values were calculated using the sigmoidal fitting option of the program Origin 8.0.

One may read the inhibition as how much of the control response was suppressed. A lower inhibition goes with a weak effect. One may read the IC50 as the concentration that gives 50% inhibition. As usually defined, the melting point is the temperature, or range, at which the solid turns liquid. `COC(=O)/C(C#N)=C1\SCC(=O)N1c1ccc(C(=O)Nc2ccccc2C)cc1` [Compound 29, Methyl (Z)-2-cyano-2-(4-oxo-3-(4-(o-tolylcarbamoyl)phenyl)thiazolidin-2-ylidene)acetate] had a melting point of 274.1 to 275 °C. At hDHODH, this molecule registered an inhibition at 10 µM of 47% and an IC50 of over 10 µM.

`COC(=O)/C(C#N)=C1\SCC(=O)N1c1ccc(C(=O)Nc2ccccc2C(=O)O)cc1` [Compound 40, (Z)-2-(4-(2-(1-Cyano-2-methoxy-2-oxoethylidene)-4-oxothiazolidin-3-yl)benzamido)benzoic acid] yielded a melting point of 261.8 to 262.5 °C. On hDHODH, the inhibition at 10 µM is 34.5% and the IC50 was over 10 µM.

Consider `COC(=O)/C(C#N)=C1\SCC(=O)N1c1ccc(Oc2ccccc2OC)cc1` [Compound 20, Methyl (Z)-2-cyano-2-(3-(4-(2-methoxyphenoxy)phenyl)-4-oxothiazolidin-2-ylidene)acetate], for which the melting point was in the range of 181.2 to 182.1 °C. At hDHODH, this molecule showed an inhibition at 10 µM of 44.7% and an IC50 of over 10 µM.

Regarding `COC(=O)/C(C#N)=C1\SCC(=O)N1c1ccc(C(=O)Nc2ccc(Cl)cc2)cc1` [Compound 32, Methyl (Z)-2-(3-(4-((4-chlorophenyl)carbamoyl)phenyl)-4-oxothiazolidin-2-ylidene)-2-cyanoacetate], the melting point was 280.1 to 280.9 °C. On hDHODH, this molecule showed an inhibition at 10 µM of 52.7% and an IC50 of 7.5 µM.

Regarding `COC(=O)/C(C#N)=C1\SCC(=O)N1c1ccc(C(=O)Nc2ccc(F)c(C#N)c2)cc1` [Compound 31, Methyl (Z)-2-cyano-2-(3-(4-((3-cyano-4-fluorophenyl)carbamoyl)phenyl)-4-oxothiazolidin-2-ylidene)acetate], the melting point lay within 264.2 to 265.1 °C. At hDHODH, this molecule had an inhibition at 10 µM of 53.6% and an IC50 of 8.56 µM.

`COC(=O)/C(C#N)=C1\SCC(=O)N1c1ccc(C(=O)Nc2ccc(Br)cc2)cc1` [Compound 33, Methyl (Z)-2-(3-(4-((4-bromophenyl)carbamoyl)phenyl)-4-oxothiazolidin-2-ylidene)-2-cyanoacetate] returned a melting point of 306.2 to 307.1 °C. At hDHODH, this molecule displayed an inhibition at 10 µM of 42% and an IC50 of over 10 µM.

The molecule `COC(=O)/C(C#N)=C1\SCC(=O)N1c1ccc(C(=O)Nc2ccc(C(C)(C)C)cc2)cc1` [Compound 37, Methyl (Z)-2-(3-(4-((4-(tert-butyl)phenyl)carbamoyl)phenyl)-4-oxothiazolidin-2-ylidene)-2-cyanoacetate] came in with a melting point of 256.1 to 257 °C. At hDHODH, this molecule yielded an inhibition at 10 µM of 75.6% and an IC50 of 1.45 µM.

The molecule `COC(=O)/C(C#N)=C1\SCC(=O)N1c1ccc(C(=O)NCc2cccc(C(=O)O)c2)cc1` [Compound 43, (Z)-3-((4-(2-(1-cyano-2-methoxy-2-oxoethylidene)-4-oxothiazolidin-3-yl)benzamido)methyl) benzoic acid] came in with a melting point of 205.7 to 206.6 °C. On hDHODH, this molecule returned an inhibition at 10 µM of 44% and an IC50 of over 10 µM.

Molecule `COC(=O)/C(C#N)=C1\SCC(=O)N1c1ccc(C(=O)Nc2ccc3ccccc3c2)cc1` [Compound 38, Methyl (Z)-2-cyano-2-(3-(4-(naphthalen-2-ylcarbamoyl)phenyl)-4-oxothiazolidin-2-ylidene)acetate] yielded a melting point of 285 to 286 °C. Also, on hDHODH, the “hDHODH inhibitory activity in words” value was “inactive”, testing at 10 µM gave an inhibition of 38.2% and the IC50 was over 10 µM.

The molecule `COC(=O)/C(C#N)=C1\SCC(=O)N1c1ccc(-c2ccc(OC)cc2)cc1F` [Compound 15, Methyl (Z)-2-cyano-2-(3-(3-fluoro-4’-methoxy-[1,1’-biphenyl]-4-yl)-4-oxothiazolidin-2-ylidene)acetate] had a melting point of 177.1 to 177.3 °C. At hDHODH, this molecule registered an inhibition at 10 µM of 55.4% and an IC50 of 6.86 µM.

`COC(=O)/C(C#N)=C1\SCC(=O)N1c1ccc(C(=O)Nc2ccc(C(F)(F)F)cc2)cc1` [Compound 35, Methyl (Z)-2-cyano-2-(4-oxo-3-(4-((4-(trifluoromethyl)phenyl)carbamoyl)phenyl)thiazolidin-2-ylidene) acetate] registered a melting point of 264.2 to 265.1 °C. At hDHODH, at 10 µM the inhibition was 24.5% and the IC50 is over 10 µM.

`COC(=O)/C(C#N)=C1\SCC(=O)N1c1ccc(C(=O)Nc2ccc(OC)cc2)cc1` [Compound 36, Methyl (Z)-2-cyano-2-(3-(4-((4-methoxyphenyl)carbamoyl)phenyl)-4-oxothiazolidin-2-ylidene)acetate] gave a melting point of 268.9 to 269.7 °C. Besides, on hDHODH, the inhibition at 10 µM amounted to 55.4% and the IC50 came to 5.01 µM.

In the case of `COC(=O)/C(C#N)=C1\SCC(=O)N1c1ccc(C(=O)NCc2ccccc2)cc1` [Compound 39, Methyl (Z)-2-(3-(4-(benzylcarbamoyl)phenyl)-4-oxothiazolidin-2-ylidene)-2-cyanoacetate], the melting point is 117.3 to 118.1 °C. Moreover, at hDHODH, the “hDHODH inhibitory activity in words” value was “inactive”, the inhibition at 10 µM stood at 39.9% and the IC50 is over 10 µM.

In the case of `COC(=O)/C(C#N)=C1\SCC(=O)N1c1ccc(OCc2cccc(C(=O)O)c2)cc1` [Compound 26, (Z)-3-((4-(2-(1-Cyano-2-methoxy-2-oxoethylidene)-4-oxothiazolidin-3-yl)phenoxy)methyl)benzoic acid], the melting point fell in the range of 233.2 to 234.1 °C. At hDHODH, this molecule came in with an inhibition at 10 µM of 36.2% and an IC50 of over 10 µM.

`COC(=O)/C(C#N)=C1\SCC(=O)N1c1ccc(C(=O)NCc2ccccc2C(=O)O)cc1` [Compound 42, (Z)-2-((4-(2-(1-cyano-2-methoxy-2-oxoethylidene)-4-oxothiazolidin-3-yl)benzamido)methyl)-benzoic acid] gave a melting point of 217.3 to 218.1 °C. On hDHODH, the inhibition at 10 µM turned out to be 36.8% and the IC50 is over 10 µM.

As for `COC(=O)/C(C#N)=C1\SCC(=O)N1c1ccc(-c2cccc(C#N)c2)cc1F` [Compound 16, Methyl (Z)-2-cyano-2-(3-(3’-cyano-3-fluoro-[1,1’-biphenyl]-4-yl)-4-oxothiazolidin-2-ylidene)acetate], the melting point was 191.2 to 191.3 °C. For the same molecule, at hDHODH, the inhibition at 10 µM was 50.2% and the IC50 amounted to 8.39 µM.

As to `COC(=O)/C(C#N)=C1\SCC(=O)N1c1ccc(-c2cccc([N+](=O)[O-])c2)cc1F` [Compound 17, Methyl (Z)-2-cyano-2-(3-(3-fluoro-3’-nitro-[1,1’-biphenyl]-4-yl)-4-oxothiazolidin-2-ylidene) acetate], the melting point was 179.2 to 179.9 °C. At hDHODH, this molecule showed an inhibition at 10 µM of 50.7% and an IC50 of 4.35 µM.

The values are drawn from publication PMC6696179, “Structural Optimization and Structure–Activity Relationship of 4-Thiazolidinone Derivatives as Novel Inhibitors of Human Dihydroorotate Dehydrogenase” (Molecules, 2019).
